Assay results from PMC5053523, “In Vitro Antibacterial Activity of Rhodanine Derivatives against Pathogenic Clinical Isolates” (PLoS ONE, 2016).
≈ marks a conversion by molar mass, not a printed value.

Tests used:
[1] = test system: established methicillin-resistant S. epidermidis biofilm (ATCC 35984, NRS 101); test: Microtiter dish biofilm eradication assay (crystal violet); type: cell-based, Staphylococcus epidermidis; conditions: 24 h
Method: We used S. epidermidis ATCC 35984 (NRS 101), a high-slime producer isolated in septicemic patients, with colonized intravascular catheters from Tennessee, USA [10]. This strain is a multi-drug resistant strain, showing resistance to methicillin, erythromycin, kanamycin, gentamicin, clindamycin and trimethoprim. Briefly, an overnight culture of biofilm—producing MRSE was diluted 1:100 in a fresh medium containing 1% glucose in a 96-well tissue-culture treated plate. Bacteria were incubated at 37°C for 24 h to permit the formation of an adherent biofilm. The medium was removed and the biofilm was washed with PBS. Antibacterial drugs (vancomycin and linezolid) and rhodanine 2, at indicated concentration, were added and incubated again at 37°C for 24 h. Plates were washed again and biofilms were stained with 0.1% (wt/vol) crystal violet. Plates were washed with PBS, air-dried and biofilm mass was dissolved using 95% ethanol. The intensity of crystal violet was measured using a micro plate reader (SpectraMax i3x; Molecular Devices, Sunnyvale, CA, USA). Data are presented as the percent biofilm mass reduction in treated groups in relation to untreated wells.

[2] = test system: Staphylococcus epidermidis; test: Broth microdilution MIC, Staphylococcus epidermidis; type: cell-based

SMILES	biofilm mass reduction ([1]; high concentrations (up to 8 X MIC))	MIC [2]	biofilm mass reduction ([1]; at 4 times its MIC, relative to untreated wells)	biofilm mass reduction ([1]; at 8 times its MIC, relative to untreated wells)
CC(=O)NC[C@H]1CN(c2ccc(N3CCOCC3)c(F)c2)C(=O)O1 [Linezolid, linezolid, reference compound]	not significantly decreased	–	–	–
O=C(O)[C@H](Cc1ccccc1)N1C(=O)/C(=C/c2cccc(-c3ccc(Cl)c(Cl)c3)c2)SC1=S [Rh 2]	–	4 µM (≈ 2.06 µg/mL)	more than 35%	> 45%
